Measured values published in patent US5773423A (priority 1994, dated 1998).
Structures can show the parent of a compound that is named as a salt. Where two headings read alike, the source gives them in different places.

How the values were obtained:
[1] = target: T1, A2 receptors from rat striatal membranes (Rattus norvegicus, UniProt P30543); experiment: Radioligand binding at A2 (A2a) receptors, displacement of [3H]CGS 21680 (or [3H]NECA with 50 nM CPA) from rat striatal membranes
T1 construct: Rat cerebral cortical and striatal membranes were prepared; from tissue; host or cells: rat striatal membranes

[2] = target: T2, A1 receptors from rat brain membranes (Rattus norvegicus, UniProt P25099); experiment: biochemical; type: binding; conditions: for inhibition at 100 µM: read-out: A1 percent displacement
T2 construct: Rat cerebral cortical and striatal membranes were prepared; from tissue; host or cells: rat brain (cerebral cortical) membranes
T2 sequence (P25099 1-326): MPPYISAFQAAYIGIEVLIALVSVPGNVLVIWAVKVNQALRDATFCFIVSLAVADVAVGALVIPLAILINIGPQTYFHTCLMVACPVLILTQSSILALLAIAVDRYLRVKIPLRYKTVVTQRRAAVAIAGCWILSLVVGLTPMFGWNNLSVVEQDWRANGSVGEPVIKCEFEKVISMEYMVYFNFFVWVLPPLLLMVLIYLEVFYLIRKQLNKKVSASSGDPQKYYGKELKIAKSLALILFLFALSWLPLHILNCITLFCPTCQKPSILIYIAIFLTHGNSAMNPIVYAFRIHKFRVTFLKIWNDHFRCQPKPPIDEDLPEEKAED

[3] = rat striatal membranes, displacement of [3H]CGS 21680 (or [3H]NECA + 50 nM CPA), read-out: A2 affinity Ki
[4] = read-out: A2 percent displacement
[5] = rat brain membranes, displacement of [3H]PIA (or [3H]CHA), read-out: A1 affinity Ki
[6] = read-out: percent displacement of radioligand at A2

T1 sequence (P30543 whole entry): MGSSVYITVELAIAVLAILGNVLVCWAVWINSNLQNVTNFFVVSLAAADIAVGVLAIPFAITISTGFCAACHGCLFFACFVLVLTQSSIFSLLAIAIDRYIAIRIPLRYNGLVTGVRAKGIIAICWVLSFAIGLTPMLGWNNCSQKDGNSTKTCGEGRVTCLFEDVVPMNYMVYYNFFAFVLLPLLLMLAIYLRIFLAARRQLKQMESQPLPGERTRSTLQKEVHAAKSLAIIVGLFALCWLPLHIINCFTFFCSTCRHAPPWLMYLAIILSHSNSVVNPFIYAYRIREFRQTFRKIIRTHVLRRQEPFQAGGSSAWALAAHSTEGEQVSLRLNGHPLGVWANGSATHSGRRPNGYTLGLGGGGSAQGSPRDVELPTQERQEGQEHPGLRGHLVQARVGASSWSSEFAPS

CCCCn1c(=O)c2c(ncn2[C@@H]2O[C@H](C(N)=O)[C@@H](O)[C@H]2O)n(CCCC)c1=O
A2a affinity decrease vs 1,3-di-n-butylxanthine-7-β-D-ribofuranoside [1]: 2.8 fold

CCCCCC[C@H]([C@H](C)O)n1cnc2c(N)ncnc21 (relative stereo) [Compound 96, erythro-9-(2-hydroxy-3-nonyl)adenine, reference compound]
inhibition at 100 µM ([1]; at 100 μM, read-out: A2 percent displacement): 59.6 ± 2.8%

Nc1ccc(CCNc2ncnc3c2ncn3[C@@H]2O[C@H](CO)[C@@H](O)[C@H]2O)cc1 [APNEA, N^6-2-(4-aminophenyl)ethyladenosine, reference compound]
A1 selectivity [2]: 8 fold | Ki ([1]; Table 2, [3H]CGS 21680, rat striatal membranes, read-out: Ki (A2)): 172 ± 50 nM

O=C(NC1CC1)[C@H]1O[C@@H](n2cnc3c(NCc4ccccc4)ncnc32)[C@H](O)[C@@H]1O [Compound 24, N^6-benzyladenosine-5'-N-cyclopropyluronamide]
Ki [1, 3]: 55 ± 6 nM

NCCNC(=O)[C@H]1O[C@@H](n2cnc3c(N)ncnc32)[C@H](O)[C@@H]1O [Compound 25, 5'-N-aminoethylaminocarboxamidoadenosine]
inhibition at 100 µM [2]: 0% | inhibition at 100 µM [1, 4]: 12.5%

CC(C)(C)OC(=O)NCCNC(=O)[C@H]1O[C@@H](n2cnc3c(N)ncnc32)[C@H](O)[C@@H]1O [Compound 26, 5'-N-boc-aminoethylaminocarboxamidoadenosine]
inhibition at 100 µM ([2]; at 100 μM): 0% | inhibition at 100 µM [1, 4]: 0%

CN(Cc1ccccc1)c1ncnc2c1ncn2[C@@H]1O[C@H](CO)[C@@H](O)[C@H]1O [Compound 30, N^6 -benzyl-N^6 -methyladenosine, reference compound]
Ki [2, 5]: 7600 nM | Ki [1, 3]: 40100 nM

Nc1ncnc2c1nc(Br)n2[C@@H]1O[C@H](CO)[C@@H](O)[C@H]1O [Compound 31, 8-bromoadenosine, reference compound]
inhibition at 100 µM [2]: 41.5 ± 3.2% | Ki [1, 3]: 22700 nM

Nc1nccc2c1ncn2[C@@H]1O[C@H](CO)[C@@H](O)[C@H]1O [Compound 32, 3-deazaadenosine, reference compound]
Ki [1, 3]: 59800 nM

Nc1c2ncn([C@@H]3O[C@H](CO)[C@@H](O)[C@H]3O)c2nc[n+]1[O-] [Compound 34, adenosine-N^1 -oxide, reference compound]
Ki [2]: 246 ± 31 nM | Ki [1, 3]: 328 ± 60 nM

CCNC(=O)[C@H]1O[C@@H](n2cnc3c(N)[n+]([O-])cnc32)[C@H](O)[C@@H]1O [Compound 35, adenosine-5'-N-ethyluronamide-N^1-oxide]
Ki [1, 3]: 101 ± 19 nM

[O-][n+]1cnc2c(ncn2[C@@H]2O[C@H](CO)[C@@H](O)[C@H]2O)c1NCc1ccccc1 [Compound 36, N^6 -benzyladenosine-N^1 -oxide]
Ki [2, 5]: 864 ± 88 nM | Ki [1, 3]: 8530 nM

CCNC(=O)[C@H]1O[C@@H](n2cnc3c(=N)n(Cc4ccc([N+](=O)[O-])cc4)cnc32)[C@H](O)[C@@H]1O [Compound 37]
Ki [2, 5]: 341 ± 52 nM | Ki [1, 3]: 190 ± 52 nM

CCNC(=O)[C@H]1O[C@@H](n2cnc3c(=N)n(Cc4ccccc4[N+](=O)[O-])cnc32)[C@H](O)[C@@H]1O [Compound 38, N'-(2-nitrobenzyl)NECA]
Ki [2, 5]: 196 ± 52 nM | Ki [1, 3]: 83.5 ± 9.5 nM

NC(=O)[C@H]1O[C@@H](n2cnc3c(NCc4ccccc4)ncnc32)[C@H](O)[C@@H]1O [Compound 39, N^6-benzyl-5'-carboxamidoadenosine]
Ki [2, 5]: 580 ± 99 nM | Ki [1, 3]: 423 ± 46 nM

CNC(=O)[C@H]1O[C@@H](n2cnc3c(NCc4ccccc4)ncnc32)[C@H](O)[C@@H]1O [Compound 40, N^6-benzyladenosine-5'-N-methyluronamide]
Ki [2, 5]: 898 ± 124 nM | Ki [1, 3]: 597 ± 42 nM

CNC(=O)[C@H]1O[C@@H](n2cnc3c(NCc4cccc(Br)c4)ncnc32)[C@H](O)[C@@H]1O [Compound 41, N^6-(3-bromobenzyl)-NMCA]
Ki [2, 5]: 65 ± 2 nM | Ki [1, 3]: 64 ± 9 nM

CNC(=O)[C@H]1O[C@@H](n2cnc3c(NCc4cccc([N+](=O)[O-])c4)ncnc32)[C@H](O)[C@@H]1O [Compound 43, N^6-(3-nitrobenzyl)-NMCA]
Ki [1, 3]: 441 ± 45 nM

CNC(=O)[C@H]1O[C@@H](n2cnc3c(NCc4cccc(N)c4)ncnc32)[C@H](O)[C@@H]1O [Compound 44, N^6-(3-aminobenzyl)adenosine-5'-N-methyluronamide]
Ki [1, 3]: 794 ± 118 nM

CNC(=O)[C@H]1O[C@@H](n2cnc3c(NCc4cccc(NC(C)=O)c4)ncnc32)[C@H](O)[C@@H]1O [Compound 45, N^6-(3-acetamidobenzyl)-NMCA]
Ki [2, 5]: 7370 nM | inhibition at 100 µM [1, 4]: 12.5 ± 1.9%

CNC(=O)[C@H]1O[C@@H](n2cnc3c(NCc4cccc(C)c4)ncnc32)[C@H](O)[C@@H]1O [Compound 46, N^6-(3-methylbenzyl)-NMCA]
Ki [2, 5]: 322 ± 23 nM | Ki [1, 3]: 415 ± 33 nM

CNC(=O)[C@H]1O[C@@H](n2cnc3c(NCc4cccc(C(F)(F)F)c4)ncnc32)[C@H](O)[C@@H]1O [Compound 47, N^6-(3-trifluoromethylbenzyl)adenosine-5'-N-methyluronamide]
Ki [1, 3]: 574 ± 49 nM

CNC(=O)[C@H]1O[C@@H](n2cnc3c(NCc4ccc(Cl)cc4)ncnc32)[C@H](O)[C@@H]1O [Compound 48, N^6-(4-chlorobenzyl)-NMCA]
Ki [1, 3]: 2730 nM

CNC(=O)[C@H]1O[C@@H](n2cnc3c(NCc4ccc(Br)cc4)ncnc32)[C@H](O)[C@@H]1O [Compound 49, N^6-(4-bromobenzyl)-NMCA]
Ki [1, 3]: 2460 nM

CNC(=O)[C@H]1O[C@@H](n2cnc3c(NCc4ccc(N)cc4)ncnc32)[C@H](O)[C@@H]1O [Compound 50, N^6-(4-aminobenzyl)-NMCA]
Ki [2, 5]: 431 ± 45 nM | Ki [1, 3]: 1590 nM

CNC(=O)[C@H]1O[C@@H](n2cnc3c(NCc4ccc(N)c(I)c4)ncnc32)[C@H](O)[C@@H]1O [Compound 51, N^6-(4-amino-3-iodobenzyl)adenosine-5'-N-methyluronamide]
displacement of radioligand from A2a (in words) [1]: not A1 or A2a receptors | Ki [1, 3]: 316 ± 43 nM

CNC(=O)[C@H]1O[C@@H](n2cnc3c(NCc4cccc(S(=O)(=O)O)c4)ncnc32)[C@H](O)[C@@H]1O [Compound 52, N^6-(3-sulfobenzyl)-NMCA triethylammonium salt]
Ki [2, 5]: > 10000 nM | Ki [1, 3]: > 10000 nM

CNC(=O)[C@H]1O[C@@H](n2cnc3c(NCc4ccc(S(=O)(=O)O)cc4)ncnc32)[C@H](O)[C@@H]1O [Compound 53, N^6-(4-sulfobenzyl)adenosine-5'-N-methyluronamide triethylammonium salt]
inhibition at 100 µM ([2]; at 100 μM): 0% | inhibition at 100 µM [1, 4]: 0%

CCNC(=O)[C@H]1O[C@@H](n2cnc3c(N[C@H](C)c4ccccc4)ncnc32)[C@H](O)[C@@H]1O [Compound 55, N^6 -(R-phenylethyl)-NECA]
Ki [2, 5]: 3.2 ± 0.1 nM | Ki [1, 3]: 259 ± 15 nM

CCNC(=O)[C@H]1O[C@@H](n2cnc3c(N[C@@H](C)c4ccccc4)ncnc32)[C@H](O)[C@@H]1O [Compound 56, N^6 -(S-phenylethyl)-NECA]
Ki [1, 3]: 1650 nM

CCNC(=O)[C@H]1O[C@@H](n2cnc3c(NCc4cccc(F)c4)ncnc32)[C@H](O)[C@@H]1O [Compound 57, N^6-(3-fluorobenzyl)adenosine-5'-N-ethyluronamide]
Ki [2, 5]: 51 ± 7 nM | Ki [1, 3]: 32 ± 4 nM

CCNC(=O)[C@H]1O[C@@H](n2cnc3c(NCc4cccc(Cl)c4)ncnc32)[C@H](O)[C@@H]1O [Compound 58, N^6-(3-chlorobenzyl)adenosine-5'-N-ethyluronamide]
Ki [2, 5]: 22 ± 3 nM | Ki [1, 3]: 19 ± 0.3 nM

NC[C@H]1O[C@@H](n2cnc3c(N)ncnc32)[C@H](O)[C@@H]1O [Compound 74, 5'-deoxy-5'-aminoadenosine, reference compound]
Ki [2, 5]: 42700 nM

Cn1c(=O)[nH]c(=O)c2[nH]cnc21 [Compound 100, 3-methylX, reference compound]
inhibition at 100 µM [1, 4]: 38 ± 0.9%

CCCCn1c(=O)c2[nH]cnc2n(CCCC)c1=O [Compound 109, 1,3-di-n-butyl-xanthine, reference compound]
Ki [1, 3]: 2930 nM

O=c1c2[nH]cnc2n(Cc2ccccc2)c(=O)n1Cc1ccccc1 [Compound 111, 1,3-dibenzylX, reference compound]
inhibition at 10 µM ([1]; at 10 μM, read-out: A2 percent displacement): 3.61 ± 0.94%

Cn1c(=O)c2ncn(C)c2n(C)c1=O [Compound 113, 1,3,9-trimethylX, reference compound]
inhibition at 100 µM [1, 4]: 14.4 ± 5.7%

Cn1c(=O)c2c(ncn2CCO)n(C)c1=O [Compound 116, 7-β-hydroxyethylT, reference compound]
Ki [1, 3]: 17400 nM

CCCCn1c(=O)c2c(ncn2[C@@H]2O[C@H](C(=O)NC)[C@@H](O)[C@H]2O)n(CCCC)c1=O [Compound 124, N-methyl 1,3-di-n-butylxanthine-7-β-D-ribofuronamide]
inhibition at 100 µM [2]: 30%

CCCCCCn1c(=O)c2c(ncn2[C@@H]2O[C@H](CO)[C@@H](O)[C@H]2O)n(CCCCCC)c1=O [Example 64, 1,3-di-n-hexylxanthine-7-β-D-ribofuranoside]
inhibition at 10 µM [1, 6]: 7.8% | inhibition at 100 µM [1, 6]: 69 ± 2%

CCCCCn1c(=O)c2c(ncn2[C@@H]2O[C@H](C(=O)NC)[C@@H](O)[C@H]2O)n(CCCCC)c1=O [Example 68, N-methyl 1,3-di-n-pentylxanthine-7-β-D-ribofuronamide]
inhibition at 100 µM [1, 6]: 2%

CCCCCCn1c(=O)c2c(ncn2[C@@H]2O[C@H](C(=O)NC)[C@@H](O)[C@H]2O)n(CCCCCC)c1=O [Example 69, N-methyl 1,3-di-n-hexylxanthine-7-β-D-ribofuronamide]
inhibition at 100 µM ([1]; Table 4, at 10^-4 M, read-out: percent displacement of radioligand at A2): 0%
